Results published in patent US20110293530A1, “Methods and Compositions for Using Bleomycin-Derivatized Microbubbles” (ARIZONIA BOARD OF REGENTS, priority 2008, published 2011).
Entries after “also recorded” stand apart in the source; their conditions may differ.

Columns and labels:
[1] = tested on: MCF-7 human breast carcinoma cells; assay: microbubble attachment to cells, parallel plate flow chamber; type: cell-based; conditions: 400×
Procedure: MCF-7 human breast carcinoma cells (ATCC, Manassas, Va.) were grown on sterile glass cover slips (40 mm) and incubated at 37° C. until they reached 40-60% confluency in a 5% fetal bovine serum/RPMI1640 medium solution.
(§1) To create biotinylated microbubbles, the synthesized biotin-bleomycin A5 ligand was conjugated to Targestar^B Targeted Ultrasound Contrast Agent (Targeson). Four hundred microliters of Coupling Reagent (Targeson) were added to 1.5 mL of conjugated Targestar^B microbubbles and incubated for 20 min at room temperature, with gentle agitation every 5 min. The product was divided into two syringes, rinsed with 1.75 mL of Infusion Buffer, and then centrifuged for 3 min at 400×g (10° C.). The infranatant was then drained to 1 mL. Fifty μL of biotinylated bleomycin A5 was added to one of the vials and both were incubated at room temperature for 20 min with gentle agitation every 5 min. To each sample was added 1.75 mL of Infusion Buffer before centrifugation for 3 min at 400×g (10° C.). This solution was then drained to 1.0 mL before recovery of the supernatant and repetition of the previous step. Finally, the supernatant was resuspended in Infusion Buffer to a final volume of 2.0 mL.
Attachment of the biotinylated microbubble to the cultured MCF-7 breast cancer cells was imaged using an inverted microscope Zeiss Axiovert 200M fitted with an AxioCam MRm camera. Adherent cancer cells on glass cover slips were assembled into a parallel plate flow chamber (Bioptechs FCS2, Micro-Environmental Systems) with a constant temperature maintained at 37° C. The prepared solution of biotinylated microbubbles was introduced into the parallel plate flow chamber via ⅛-inch diameter tubing (Silastic) at a controlled rate of 0.01 mL/min using an adjustable infusion-withdrawal syringe pump (Harvard Apparatus, Holliston, Mass.). A negative control experiment was performed using a preparation of Targestar^B microbubbles without any added biotin-bleomycin A5 ligand. ‘Normal’ human breast MCF-10A cells were used as well for comparison purposes. […]

[2] = tested on: MCF-10A 'normal' human breast cells; assay: as above; type: cell-based; conditions: MCF-10A 'normal' breast cells; 400×; FIGS. 5, 9-11
Procedure: as §1
Attachment of the biotinylated microbubble to the cultured MCF-7 breast cancer cells was imaged using an inverted microscope Zeiss Axiovert 200M fitted with an AxioCam MRm camera. Adherent cancer cells on glass cover slips were assembled into a parallel plate flow chamber (Bioptechs FCS2, Micro-Environmental Systems) with a constant temperature maintained at 37° C. […]

| Substance | Targestar B microbubble attachment to cells (microscopy, in words) ([1]; FIGS. 3, 4, 6-8) | Targestar B microbubble attachment to cells (microscopy, in words) [2] | Targestar B microbubble attachment to cells (microscopy, in words) ([1]; FIGS. 3, 4, 6-8, listed as biotinylated BLM A5) | Targestar B microbubble attachment to cells (microscopy, in words) ([1]; FIGS. 3, 4, 6-8, listed as biotinylated bleomycin) |
| --- | --- | --- | --- | --- |
| biotinylated deglycobleomycin A5 | does not promote Targestar B microbubble attachment; also recorded: did not reveal the presence of microbubbles attached | does not promote Targestar B microbubble attachment; also recorded: lack of attachment | – | – |
| biotinylated bleomycin A5 [Biotinylated BLM A5] | – | attachment was not observed | selective attachment | did promote attachment |
